# Data taken from US20260286316A1, “METHOD OF PRODUCTION OF MODIFIED PHAGE AND METHOD OF TREATMENT USING SAME” (priority 2022, published 2026).
# What was measured:
# [1] = tested on: S. aureus ATCC51650 and CI11; test: Time-dependent interaction of phage J-Sa36 and clindamycin (OD600); assay type: cell-based, Staphylococcus aureus; details: ½ MIC clindamycin only or J-Sa36 (MOI 0.2) only
# Procedure: OD600 readings were taken at addition of either phage or clindamycin and following the 24-hour incubation.
# The total amount of phage J-Sa36 added into the culture at different time points was adjusted to maintain MOI=0.2, according to the number of bacteria measured via CFU counts at each time point.
# S. aureus ATCC51650 = test: Phage replication by titer; assay type: cell-based, Staphylococcus aureus; details: 48 hours incubation
# Procedure: (§1) Phage titers were determined against S. aureus RN4220 (ATCC) using the double layer spot assay technique. Briefly, 100 μl of a S. aureus overnight culture was mixed with 4 mL of 0.4% TSA and poured onto a 1.5% TSA plate. […] After the plates were incubated in a humidified incubator at 37° C. overnight, plaques were counted, counts were averaged, and titers of the filtrate were calculated based on the dilution.
# (§2) A 100 μl sample was taken from an S. aureus culture (10 ml in TSB) after 0 and 48 hours following treatment with clindamycin, phage or a phage clindamycin co-incubation. The sample was treated with 25 μl of chloroform, shaken for 30 seconds, centrifuged (3000 rpm, 5 minutes, room temperature) and the supernatant used to determine phage titers against the same isolate. Phage titers in plaque forming units [PFU]/mL were recorded initially and at 48 hours to assess for phage replication. To allow for phage resistant (phage insensitive) bacterial isolates to show plaques, clindamycin was added to the soft agar overlay.
# S. aureus CI11 = test: Phage replication by titer; assay type: cell-based, Staphylococcus aureus; details: 48 hours incubation
# Procedure: as §1, §2
# S. aureus CI8 = test: Phage replication by titer; assay type: cell-based, Staphylococcus aureus; details: 48 hours incubation
# Procedure: as §1, §2
# S. aureus ATCC25923 = test: Clindamycin MIC assay (Example 2); assay type: cell-based; details: Staphylococcus aureus; strain ATCC25923
# Procedure: (§3) The MIC of clindamycin against the S. aureus strains was assessed using the broth microdilution technique as previously described (see Wiegand et al., 2008 supra). Results were interpreted as follows: Sensitive: ≤0.2 μg/mL; Intermediate: 0.4 μg/ml; Resistant: >0.6 μg/mL. The S. aureus strains sensitive to clindamycin were selected for further tests. The MIC was performed three times.
# S. aureus C285 = test: Clindamycin MIC assay (Example 2); assay type: cell-based; details: Staphylococcus aureus; strain C285
# Procedure: as §3
# S. aureus C319 = test: Clindamycin MIC assay (Example 2); assay type: cell-based; details: Staphylococcus aureus; strain C319
# Procedure: as §3
# S. aureus C330 = test: Clindamycin MIC assay (Example 2); assay type: cell-based; details: Staphylococcus aureus; strain C330
# Procedure: as §3
# S. aureus C43 = test: Clindamycin MIC assay (Example 2); assay type: cell-based; details: Staphylococcus aureus; strain C43
# Procedure: as §3
# [2] = tested on: phage non-sensitive S. aureus strains (C43, C330, C285 and C319); test: Phage and clindamycin combination treatment (OD600); assay type: cell-based, Staphylococcus aureus; details: ½ MIC clindamycin only or phage only (MOI=1), 24 hours
# Description: FIG. 6 provides graphical results showing that the combination of S. aureus phage and ½ MIC clindamycin kills non-sensitive S. aureus strains: (A) S. aureus C43 treated with APTC-SA-2 and ½ MIC clindamycin; (B) S. aureus C330 treated with APTC-SA-2 and ½ MIC clindamycin; (C) S. aureus ATCC25923 treated with APTC-SA-2 and ½ MIC clindamycin; (D) S. aureus C285 treated with APTC-SA-12 and ½ MIC clindamycin; (E) S. aureus C319 treated with APTC-SA-12 and ½ MIC clindamycin; and (F) S. aureus ATCC25923 treated with APTC-SA-12 and ½ MIC clindamycin. Significance was determined compared to untreated control. Data expressed as mean±SEM for three independent experiments. ****, p<0.0001; ns, no significant. C=clindamycin;
# A phage and clindamycin synergy assay was performed using 96 well plates. In brief, selected S. aureus strains (phage non-sensitive) were grown on 1.5% TSA at 37° C. overnight. A single colony was transferred to TSB to generate a culture with a starting concentration of 5×10^5 CFU/ml. Phages were added to the bacteria culture at a MOI of 1 according to phage titers. Clindamycin was added to the cultures at ½ MIC (according to the MIC assay result). Optical density (Gorski A et al., Antibiotics (Basel) 9 (11), 2020) readings at 600 nm were recorded after 24 hours.
compound,measurement,setting,value
CCC[C@@H]1C[C@@H](C(=O)N[C@@H]([C@H]2O[C@H](SC)[C@H](O)[C@@H](O)[C@H]2O)[C@H](C)Cl)N(C)C1 [clindamycin],"bacterial viability at 24 hours, single agent",[1],did not significantly affect bacterial viability
same,plaques from supernatant after ½ MIC clindamycin only,S. aureus ATCC51650,produced no plaques
same,plaques from supernatant after ½ MIC clindamycin only,S. aureus CI11,produced no plaques
same,plaques from supernatant after ½ MIC clindamycin only,S. aureus CI8,produced no plaques
same,MIC,S. aureus ATCC25923,0.2 µg/mL
same,MIC,S. aureus C285,0.2 µg/mL
same,MIC,S. aureus C319,0.2 µg/mL
same,MIC,S. aureus C330,0.2 µg/mL
same,MIC,S. aureus C43,0.2 µg/mL
same,"growth of S. aureus bacteria vs control, single agent",[2],similar
